Assay results taken from the NIST ThermoML archive (doi:10.1021/je025655p).
± gives the expanded uncertainty stated by the source.

Details: 101.33 kPa, Liquid; for viscosity: Capillary tube (Ostwald / Ubbelohde) method; for speed of sound: Sing-around technique in a fixed-path interferometer; for mass density: Vibrating tube method

Row | viscosity (283.15 K) [mPa·s] | speed of sound (283.15 K) [m/s] | mass density (283.15 K) [kg/m3] | viscosity (298.15 K) [mPa·s] | speed of sound (298.15 K) [m/s] | mass density (298.15 K) [kg/m3] | viscosity (313.15 K) [mPa·s] | speed of sound (313.15 K) [m/s] | mass density (313.15 K) [kg/m3] | Compound
1 | 1.005 ± 0.0098 | 1335.8 ± 1.6 | 894.08 ± 0.46 | 0.8005 ± 0.0081 | 1255 ± 1.6 | 879.18 ± 0.45 | 0.6494 ± 0.0067 | 1199.8 ± 1.6 | 864.37 ± 0.45 | C1CCOCC1 [tetrahydropyran]
2 | 2.693 ± 0.023 | 872.3 ± 1.2 | 1407.89 ± 0.21 | 1.755 ± 0.017 | 826.7 ± 1.1 | 1382.44 ± 0.2 | 1.208 ± 0.012 | 791.7 ± 1.1 | 1356.91 ± 0.19 | OCC(F)(F)F [2,2,2-trifluoroethanol]
